# Residues, ends and D or L forms follow the SMILES beside them. No end group written: not given here. *: point of attachment. Palmitoyl = CCCCCCCCCCCCCCCC(=O)*; C16 = C16 lipid
# How the values were obtained:
# [1] = test system: Jurkat E6-1 cells and Jurkat HXBc2 cells expressing HIV-1 HXBc2 Rev and ENV proteins; type: cell-based; settings: for IC50 (nM) In cell-cell fusion assay: Table 4; for IC50: read-out: IC50 in cell-cell fusion inhibition assay
# Description: Jurkat E6-1 cells were from Dr. Arthur Weiss (Weiss A et al. 1984, J. Immunol. 133; 123-8), and Jurkat HXBc2 (4) cells expressing HIV-1 HXBc2 Rev and ENV proteins were from Dr. Joseph Sodroski (Cao, J. et al. 1996, J. Virol. 70; 1340-54). Cells were cultured every 3 to 4 days, and maintained in RPMI-1640 supplemented with the appropriate antibiotics at 37° C. with 5% CO2 in a humidified incubator. For ENV expression, Jurkat HXBc2 (4) cells were transferred to medium without tetracycline three days prior to the experiments. […] Cell-Cell Fusion Inhibition Assay—The protocol utilizing Jurkat E6-1 and Jurkat HXBc2 cells for a cell-cell fusion assay was previously described (Huerta L. et al. 2002, Cytometry, 47; 100-6. In short, Jurkat E6-1 and Jurkat HXBc2 cells were labeled with DiI and DiD lypophilic fluorescent probes, respectively. The two cell populations were co-incubated for 6 h in a ratio of 1:1 in the presence of different concentrations of the inhibitory peptides. Cells that co-incubated without the presence of peptides served as an optimal fusion reference. Unlabeled cells that were handled similarly served as an intrinsic fluorescence control. Cells labeled separately with DiI or DiD were used to compensate for the optimal separation of fluorescent signals. Jurkat HXBc2 cells labeled with DiI were co-incubated with Jurkat HXBc2 cells labeled with DiD for a fusion background that was subtracted from the measurements of the experiment. The following alterations were applied to the original protocol: (i) 5 ul of a 1 mg/ml DiI or DiD solution in dimethylsulfoxide (DMSO) was added to 1 ml of 5×10^6 cells/ml Jurkat E6-1 or Jurkat HXBc2 cells, respectively. (ii) Data from 150,000 events for each sample were collected on FACSort, upgraded to a FACSCalibur cell analyzer (Becton Dickinson), and further analyzed. Fitting of the data points was performed according to the equation derived from Hills' equation:
# HIV-1 HXB2 = type: cell-based; settings: Table 5
# Description: For the fitting, we uploaded the X and Y values of the raw data (after subtracting the background) into a nonlinear least squares regression (curve fitter) program that provided the IC50 value (A of the equation), as well as the c value. Virus Infectivity Assay—Fully infectious HIV-1 HXB2 concentrated virus stock was a kind gift of the AIDS Vaccine Program, SAIC. Experiments were done according to a P3 biological safety level. The infectivity of HIV-1 HXB2 was determined using the TZM-bl cell line as a reporter. Cells were added (2×10^4 cells/well) to a 96-well clear-bottomed microtiter plate with 10% serum supplemented Dulbecco's modified eagle medium (DMEM). Plates were incubated at 37° C. for 18-24 hours to allow the cells to adhere. The media was then aspirated from each well and replaced with serum free DMEM containing 40 micrograms/mL DEAE-dextran. […] Luciferase activity was analyzed using the Steady-Glo Luciferase assay kit (Promega, Madison Wis.). […] IC50 Values were calculated from the fitted curve similarly to the cell-cell fusion assay. […] The eight different possible combinations (triple, NBD, DiI, DiD, NBD+DiI, NBD+DiD, DiI+DiD, no label) were defined in the analysis software and the percentage of each one was calculated. The percentage of NBD labeling (peptide) on all cell types in relation to all available labeled cells in the system was calculated. […]
# HIV-1LAI = settings: blocked infection of target cells; cited from earlier work
molecule,measurement,setting,value
"C16-RQLLSGIDQEQNNLTRLIEAQIHELQ (C16-RQLLSGIDQEQNNLTRLIEAQIHELQ-NH2) [C16-Sh-RQLL-Mut e,g]",IC50 (nM) In cell-cell fusion assay,[1],Not active
"CCCCCCCCCCCCCCCC(=O)NCCCC[C@H](NC(=O)[C@H](CCC(N)=O)NC(=O)[C@H](CC(C)C)NC(=O)[C@H](CCC(=O)O)NC(=O)[C@H](Cc1c[nH]cn1)NC(=O)[C@@H](NC(=O)[C@H](CCC(N)=O)NC(=O)[C@H](C)NC(=O)[C@H](CCC(=O)O)NC(=O)[C@@H](NC(=O)[C@H](CC(C)C)NC(=O)[C@H](CCCNC(=N)N)NC(=O)[C@@H](NC(=O)[C@H](CC(C)C)NC(=O)[C@H](CC(N)=O)NC(=O)[C@H](CC(N)=O)NC(=O)[C@H](CCC(N)=O)NC(=O)[C@H](CCC(=O)O)NC(=O)[C@H](CCC(N)=O)NC(=O)[C@H](CC(=O)O)NC(=O)[C@@H](NC(=O)CNC(=O)[C@H](CO)NC(=O)[C@H](CC(C)C)NC(=O)[C@H](CC(C)C)NC(=O)[C@H](CCC(N)=O)NC(=O)[C@@H](N)CCCNC(=N)N)[C@@H](C)CC)[C@@H](C)O)[C@@H](C)CC)[C@@H](C)CC)C(N)=O [Sh-RQLL-Mut e,g-C16] (H-RQLLSGIDQEQNNLTRLIEAQIHELQK(Palmitoyl)-NH2; N-terminus assumed)",IC50 (nM) In cell-cell fusion assay,[1],Not active
"CC[C@H](C)[C@H](NC(=O)CNC(=O)[C@@H](N)CO)C(=O)N[C@@H](CC(=O)O)C(=O)N[C@@H](CCC(N)=O)C(=O)N[C@@H](CCC(=O)O)C(=O)N[C@@H](CCC(N)=O)C(=O)N[C@@H](CC(N)=O)C(=O)N[C@@H](CC(N)=O)C(=O)N[C@@H](CC(C)C)C(=O)N[C@H](C(=O)N[C@@H](CCCNC(=N)N)C(=O)N[C@@H](CC(C)C)C(=O)N[C@H](C(=O)N[C@@H](CCC(=O)O)C(=O)N[C@@H](C)C(=O)N[C@@H](CCC(N)=O)C(=O)N[C@H](C(=O)N[C@@H](Cc1c[nH]cn1)C(=O)N[C@@H](CCC(=O)O)C(=O)N[C@@H](CC(C)C)C(=O)N[C@@H](CCC(N)=O)C(=O)N[C@@H](CC(C)C)C(=O)N[C@H](C(=O)N[C@@H](CCC(N)=O)C(=O)N[C@@H](Cc1c[nH]c2ccccc12)C(=O)N[C@@H](CCCCN)C(=O)N[C@H](C(=O)N[C@@H](CCCCN)C(=O)N[C@@H](CCC(N)=O)C(=O)N[C@@H](CC(C)C)C(=O)N[C@@H](CC(C)C)C(=O)N[C@@H](C)C(=O)N[C@@H](CCCNC(=N)N)C(=O)N[C@H](C(=O)N[C@@H](CC(C)C)C(=O)N[C@@H](CCCCN)C(N)=O)[C@@H](C)CC)[C@@H](C)CC)[C@@H](C)O)[C@@H](C)CC)[C@@H](C)CC)[C@@H](C)O [N36 MUTe,g, reference compound] (H-SGIDQEQNNLTRLIEAQIHELQLTQWKIKQLLARILK-NH2; N-terminus assumed)",IC50,[1],936 ± 36 nM
"HQTLSGIDQEQNNLTRLIEAQIHELQ [Sh-Mut e,g]",IC50 (nM) In virus-cell fusion assay,HIV-1 HXB2,Not active
same,IC50 (nM) In cell-cell fusion assay,[1],Not active
"HQTLSGIDQEQNNLTRLIEAQIHELQ-C16 [Sh-Mut e,g-C16]",IC50 (nM) In cell-cell fusion assay,[1],Not active
"SGIVQQLNNQLRAEEANQHLEQLSVWGSKQNQARRLK(δ-NH) [N36 MUTa,d, reference compound]",IC50 in cell-cell fusion inhibition assay,[1],inactive
same,IC50 nM,"[1]; cell-cell fusion assay, Table 3, N36 mutated peptides",Not active
"RQLLSGIDQEQNNLTRLIEAQIHELQ [Sh-RQLL-Mut e,g]",IC50 (nM) In cell-cell fusion assay,[1],Not active
enfuvirtide,EC50 against HIV-1LAI,HIV-1LAI,0.5 ng/mL
"C16-HQTLSGIDQEQNNLTRLIEAQIHELQ (C16-HQTLSGIDQEQNNLTRLIEAQIHELQ-NH2) [C16-Sh-Mut e,g]",IC50,HIV-1 HXB2; read-out: IC50 (nM) In virus-cell fusion assay,643 ± 137 nM
same,IC50 (nM) In cell-cell fusion assay,[1],Not active
"CCCCCCCCCCCCCCCC(=O)NCCCC[C@H](NC(=O)[C@H](CC(C)C)NC(=O)[C@@H](NC(=O)[C@H](CCCNC(=N)N)NC(=O)[C@H](C)NC(=O)[C@H](CC(C)C)NC(=O)[C@H](CC(C)C)NC(=O)[C@H](CCC(N)=O)NC(=O)[C@H](CCCCN)NC(=O)[C@@H](NC(=O)[C@H](CCCCN)NC(=O)[C@H](Cc1c[nH]c2ccccc12)NC(=O)[C@H](CCC(N)=O)NC(=O)[C@@H](NC(=O)[C@H](CC(C)C)NC(=O)[C@H](CCC(N)=O)NC(=O)[C@H](CC(C)C)NC(=O)[C@H](CCC(=O)O)NC(=O)[C@H](Cc1c[nH]cn1)NC(=O)[C@@H](NC(=O)[C@H](CCC(N)=O)NC(=O)[C@H](C)NC(=O)[C@H](CCC(=O)O)NC(=O)[C@@H](NC(=O)[C@H](CC(C)C)NC(=O)[C@H](CCCNC(=N)N)NC(=O)[C@@H](NC(=O)[C@H](CC(C)C)NC(=O)[C@H](CC(N)=O)NC(=O)[C@H](CC(N)=O)NC(=O)[C@H](CCC(N)=O)NC(=O)[C@H](CCC(=O)O)NC(=O)[C@H](CCC(N)=O)NC(=O)[C@H](CC(=O)O)NC(=O)[C@@H](NC(=O)CNC(=O)[C@@H](N)CO)[C@@H](C)CC)[C@@H](C)O)[C@@H](C)CC)[C@@H](C)CC)[C@@H](C)O)[C@@H](C)CC)[C@@H](C)CC)C(N)=O [N36 MUTe,g-C16] (H-SGIDQEQNNLTRLIEAQIHELQLTQWKIKQLLARILK(Palmitoyl)-NH2)",IC50,[1],8.8 ± 4 nM
"CCCCCCCCCCCCCCCC(=O)N[C@@H](CO)C(=O)NCC(=O)N[C@H](C(=O)N[C@@H](CC(=O)O)C(=O)N[C@@H](CCC(N)=O)C(=O)N[C@@H](CCC(=O)O)C(=O)N[C@@H](CCC(N)=O)C(=O)N[C@@H](CC(N)=O)C(=O)N[C@@H](CC(N)=O)C(=O)N[C@@H](CC(C)C)C(=O)N[C@H](C(=O)N[C@@H](CCCNC(=N)N)C(=O)N[C@@H](CC(C)C)C(=O)N[C@H](C(=O)N[C@@H](CCC(=O)O)C(=O)N[C@@H](C)C(=O)N[C@@H](CCC(N)=O)C(=O)N[C@H](C(=O)N[C@@H](Cc1c[nH]cn1)C(=O)N[C@@H](CCC(=O)O)C(=O)N[C@@H](CC(C)C)C(=O)N[C@@H](CCC(N)=O)C(=O)N[C@@H](CC(C)C)C(=O)N[C@H](C(=O)N[C@@H](CCC(N)=O)C(=O)N[C@@H](Cc1c[nH]c2ccccc12)C(=O)N[C@@H](CCCCN)C(=O)N[C@H](C(=O)N[C@@H](CCCCN)C(=O)N[C@@H](CCC(N)=O)C(=O)N[C@@H](CC(C)C)C(=O)N[C@@H](CC(C)C)C(=O)N[C@@H](C)C(=O)N[C@@H](CCCNC(=N)N)C(=O)N[C@H](C(=O)N[C@@H](CC(C)C)C(=O)N[C@@H](CCCCN)C(N)=O)[C@@H](C)CC)[C@@H](C)CC)[C@@H](C)O)[C@@H](C)CC)[C@@H](C)CC)[C@@H](C)O)[C@@H](C)CC [C16-N36 MUTe,g] (Palmitoyl-SGIDQEQNNLTRLIEAQIHELQLTQWKIKQLLARILK-NH2)",IC50,[1],162 ± 4 nM

# — patent US20120028887A1, “L[…] HIV-1” (priority 2009, published 2012)
